IC50 data for 28 compounds are collected here from patent US20240174662A1, “SMALL MOLECULE INHIBITORS OF SALT INDUCIBLE KINASES” (Janssen Biotech, Inc., priority 2021, published 2024).

The structures appear in SMILES notation. Some results are limits rather than exact numbers.

For orientation: IC50 means the concentration needed to halve the response being measured. Read a low IC50 as greater potency in that assay.

In the assay the target is SIK2 (Homo sapiens (Human), UniProt Q9H0K1). Description: SIK2 Enzymatic Assay Version 2 (High ATP). The format is biochemical. Conditions: 3 mM ATP and 200 μM HDAC5tide final, ADP-Glo Max luminescence. An outline of the steps:
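Luminescent ADP-Glo Max read-out: depletion reagent 2 h, then detection reagent 1 h. Before the reaction, compounds were incubated 30 min with enzyme added at 6 nM (twice final concentration), with all steps at room temperature.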
In general terms: ADP-Glo turns the ADP formed in a reaction into a luminescent signal.

SIK2, sequence (Q9H0K1 whole entry, species assumed): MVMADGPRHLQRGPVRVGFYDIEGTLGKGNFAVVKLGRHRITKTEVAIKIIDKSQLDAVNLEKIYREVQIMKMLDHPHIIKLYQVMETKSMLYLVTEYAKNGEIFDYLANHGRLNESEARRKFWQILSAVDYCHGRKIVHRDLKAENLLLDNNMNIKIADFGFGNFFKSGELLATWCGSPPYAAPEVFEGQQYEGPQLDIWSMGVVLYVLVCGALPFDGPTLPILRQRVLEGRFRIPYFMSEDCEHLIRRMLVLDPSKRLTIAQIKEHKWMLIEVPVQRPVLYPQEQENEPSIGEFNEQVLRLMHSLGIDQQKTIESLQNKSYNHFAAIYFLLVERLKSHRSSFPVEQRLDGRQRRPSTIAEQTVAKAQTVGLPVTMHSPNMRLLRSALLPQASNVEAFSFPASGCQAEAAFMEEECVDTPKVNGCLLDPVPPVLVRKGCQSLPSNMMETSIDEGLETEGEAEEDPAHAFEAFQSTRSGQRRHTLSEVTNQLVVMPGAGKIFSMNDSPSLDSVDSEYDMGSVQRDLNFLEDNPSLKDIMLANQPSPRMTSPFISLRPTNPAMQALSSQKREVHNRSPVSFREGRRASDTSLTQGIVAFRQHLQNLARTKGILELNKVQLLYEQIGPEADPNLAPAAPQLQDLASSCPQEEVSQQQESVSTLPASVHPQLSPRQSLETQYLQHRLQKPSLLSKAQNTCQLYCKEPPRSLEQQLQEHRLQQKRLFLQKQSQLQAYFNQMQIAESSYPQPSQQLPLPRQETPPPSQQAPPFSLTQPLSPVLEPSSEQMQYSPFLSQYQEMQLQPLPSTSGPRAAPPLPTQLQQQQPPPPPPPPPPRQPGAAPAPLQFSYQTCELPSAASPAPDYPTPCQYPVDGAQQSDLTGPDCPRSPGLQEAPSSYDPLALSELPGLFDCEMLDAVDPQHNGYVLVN

For the compound `CCc1cc(Nc2cc3cc(-c4c(OC[C@H]5CCN5C)cnn4C)ccn3n2)nc(C)n1` [Example 145, N-(6-ethyl-2-methyl-pyrimidin-4-yl)-5-[2-methyl-4-[[(2R)-1-methylazetidin-2-yl]methoxy]pyrazol-3-yl]pyrazolo[1,5-a]pyridin-2-amine], the IC50 is less than 0.000847 µM. For `Cc1cc(Nc2cc3cc(-c4c(OC[C@H]5CCN5C)cnn4C)ccn3n2)nc(C(=O)N(C)C)n1` [Example 110, N,N,4-trimethyl-6-[[5-[2-methyl-4-[[(2R)-1-methylazetidin-2-yl]methoxy]pyrazol-3-yl]pyrazolo[1,5-a]pyridin-2-yl]amino]pyrimidine-2-carboxamide] the value was 0.0028 µM. For the compound `CN1CC(F)(F)C1COc1cnn(C)c1-c1ccn2nc(NC(=O)C3CC3)cc2c1` (racemic) [Example 60, rac-N-[5-[4-[(3,3-difluoro-1-methyl-azetidin-2-yl)methoxy]-2-methyl-pyrazol-3-yl]pyrazolo[1,5-a]pyridin-2-yl]cyclopropanecarboxamide], the IC50 stood at 0.23 µM. Compound `Cc1onc(OC[C@H]2C[C@@H](N)C2)c1-c1ccn2nc(NC(=O)C3CC3)cc2c1` [Example 319, N-[5-[3-[(3-aminocyclobutyl)methoxy]-5-methyl-isoxazol-4-yl]pyrazolo[1,5-a]pyridin-2-yl]cyclopropanecarboxamide] yielded a half-maximal inhibitory concentration (IC50) of 0.0518 µM. For `COC1(COc2cnn(C)c2-c2ccn3nc(NC(=O)C4CC4)cc3c2)CN(C)C1` [Example 406, N-[5-[4-[(3-methoxy-1-methyl-azetidin-3-yl)methoxy]-2-methyl-pyrazol-3-yl]pyrazolo[1,5-a]pyridin-2-yl]cyclopropanecarboxamide] the value was 0.174 µM. For `CN1CC[C@@H]1COc1cnn(C)c1-c1ccn2nc(Nc3cn(C)nn3)cc2c1` [Example 124, 5-[2-methyl-4-[[(2R)-1-methylazetidin-2-yl]methoxy]pyrazol-3-yl]-N-(1-methyltriazol-4-yl)pyrazolo[1,5-a]pyridin-2-amine] the value was 0.0149 µM. The figure for `Cc1cc(Nc2cc3cc(-c4c(OC[C@H]5CCN5C)cnn4C)ccn3n2)nc(C(=O)NCC(C)(C)O)c1` [Example 113, N-(2-hydroxy-2-methyl-propyl)-4-methyl-6-[[5-[2-methyl-4-[[(2R)-1-methylazetidin-2-yl]methoxy]pyrazol-3-yl]pyrazolo[1,5-a]pyridin-2-yl]amino]pyridine-2-carboxamide] is 0.0223 µM. `CCCN1CC[C@@H]1COc1cnn(C)c1-c1ccn2nc(NC(=O)C3CC3)cc2c1` [Example 246, N-[5-[2-methyl-4-[[(2R)-1-propylazetidin-2-yl]methoxy]pyrazol-3-yl]pyrazolo[1,5-a]pyridin-2-yl]cyclopropanecarboxamide] gave a half-maximal inhibitory concentration (IC50) of 0.0016 µM. The figure for `Cc1cc(Nc2cc3cc(-c4c(OC[C@H]5CCCN5C)cnn4C)ccn3n2)nc(C(F)(F)F)n1` [Example 283, 5-[2-methyl-4-[[(2R)-1-methylpyrrolidin-2-yl]methoxy]pyrazol-3-yl]-N-[6-methyl-2-(trifluoromethyl)pyrimidin-4-yl]pyrazolo[1,5-a]pyridin-2-amine] is 0.0034 µM; for `Cn1ncc(OC[C@@H](N)c2ccccc2)c1-c1ccn2nc(NC(=O)C3CC3)cc2c1` [Example 235, N-[5-[4-[(2S)-2-amino-2-phenyl-ethoxy]-2-methyl-pyrazol-3-yl]pyrazolo[1,5-a]pyridin-2-yl]cyclopropanecarboxamide] it is less than 0.000847 µM; for `CN1CC[C@@H]1COc1cnn(C)c1-c1ccn2nc(NC(=O)[C@H]3C[C@@H]3c3ccccc3)cc2c1` (single isomer, unassigned) [Example 156, (1*S, 2*S)—N-[5-[2-methyl-4-[((R)-1-methylazetidin-2-yl)methoxy]pyrazol-3-yl]pyrazolo[1,5-a]pyridin-2-yl]-2-phenyl-cyclopropanecarboxamide] it is 0.0031 µM. `Cc1cc(Nc2cc3cc(-c4c(OC[C@H]5CCN5CCF)cnn4C)ccn3n2)nc(C)n1` [Example 274, N-(2,6-dimethylpyrimidin-4-yl)-5-[4-[[(2R)-1-(2-fluoroethyl)azetidin-2-yl]methoxy]-2-methyl-pyrazol-3-yl]pyrazolo[1,5-a]pyridin-2-amine] registered an IC50 of 0.0009 µM. The figure for `Cc1cc(Nc2cc3cc(-c4c(OC[C@H]5CCN5)cnn4C(F)F)ccn3n2)nc(C)n1` [Example 260, 5-[4-[[(2R)-azetidin-2-yl]methoxy]-2-(difluoromethyl)pyrazol-3-yl]-N-(2,6-dimethylpyrimidin-4-yl)pyrazolo[1,5-a]pyridin-2-amine] is 0.0376 µM; for `Cn1ncc(OC[C@H]2CNC[C@@H]2O)c1-c1ccn2nc(NC(=O)C3CC3)cc2c1` [Example 345, N-[5-[4-[[(3R,4R)-4-hydroxypyrrolidin-3-yl]methoxy]-2-methyl-pyrazol-3-yl]pyrazolo[1,5-a]pyridin-2-yl]cyclopropanecarboxamide] it is 0.0582 µM. For `CCN1CC[C@@H]1COc1cnn(C)c1-c1ccn2nc(Nc3ncc(F)cn3)cc2c1` [Example 176, (R)-5-(4-((1-ethylazetidin-2-yl)methoxy)-1-methyl-1H-pyrazol-5-yl)-N-(5-fluoropyrimidin-2-yl)pyrazolo[1,5-a]pyridin-2-amine] the value was 0.0727 µM; for `CN1C[C@@H](c2ccccc2)C[C@@H]1COc1cnn(C)c1-c1ccn2nc(NC(=O)C3CC3)cc2c1` [Example 258, N-[5-[2-methyl-4-[[(2R,4R)-1-methyl-4-phenyl-pyrrolidin-2-yl]methoxy]pyrazol-3-yl]pyrazolo[1,5-a]pyridin-2-yl]cyclopropanecarboxamide], 0.0073 µM. Turning to `CO[C@H]1CNC[C@H]1Oc1cnn(C(F)F)c1-c1ccn2nc(Nc3cc(C)nc(C)n3)cc2c1` [Example 96, 5-[2-(difluoromethyl)-4-[(3R,4S)-4-methoxypyrrolidin-3-yl]oxy-pyrazol-3-yl]-N-(2,6-dimethylpyrimidin-4-yl)pyrazolo[1,5-a]pyridin-2-amine], the concentration for half-maximal inhibition (IC50) is 0.0068 µM. `CCN1CC[C@@H]1COc1cnn(C)c1-c1ccn2nc(Nc3cc(C(F)(F)F)ncn3)cc2c1` [Example 164, 5-[4-[[(2R)-1-ethylazetidin-2-yl]methoxy]-2-methyl-pyrazol-3-yl]-N-[6-(trifluoromethyl)pyrimidin-4-yl]pyrazolo[1,5-a]pyridin-2-amine] showed an IC50 of 0.0015 µM.

Consider `CCN1CC[C@@H]1COc1cnn(C(F)F)c1-c1ccn2nc(Nc3cc(C)c(=O)n(C)n3)cc2c1` [Example 484, 6-[[5-[2-(difluoromethyl)-4-[[(2R)-1-ethylazetidin-2-yl]methoxy]pyrazol-3-yl]pyrazolo[1,5-a]pyridin-2-yl]amino]-2,4-dimethyl-pyridazin-3-one], for which the half-inhibitory concentration (IC50) was 0.0009 µM.

`Cc1cc(Nc2cc3cc(-c4c(CO[C@@H]5CN(C)C[C@H]5C)cnn4C)ccn3n2)nc(C)n1` (racemic) [Example 364, Rac-N-(2,6-dimethylpyrimidin-4-yl)-5-[4-[(1,4-dimethylpyrrolidin-3-yl)oxymethyl]-2-methyl-pyrazol-3-yl]pyrazolo[1,5-a]pyridin-2-amine] registered an IC50 of 0.0024 µM.

Compound `Cc1cc(Nc2cc3cc(-c4c(OC[C@@]5(F)CCNC5)cnn4C(F)F)ccn3n2)nc(C)n1` (single isomer, unassigned) [Example 262, (*R)-5-(1-(difluoromethyl)-4-((3-fluoropyrrolidin-3-yl)methoxy)-1H-pyrazol-5-yl)-N-(2,6-dimethylpyrimidin-4-yl)pyrazolo[1,5-a]pyridin-2-amine] yielded an IC50 of 0.0047 µM.

`Cc1ncc(Nc2cc3cc(-c4c(OC[C@@H]5CCN5C)cnn4C)ccn3n2)nc1C` [Example 138, N-(5,6-dimethylpyrazin-2-yl)-5-[2-methyl-4-[[(2S)-1-methylazetidin-2-yl]methoxy]pyrazol-3-yl]pyrazolo[1,5-a]pyridin-2-amine] had an IC50 of 0.0403 µM. The figure for `Cc1onc(OC[C@@](C)(N)c2ccccc2)c1-c1ccn2nc(NC(=O)C3CC3)cc2c1` [Example 225, N-[5-[3-[(2S)-2-amino-2-phenyl-propoxy]-5-methyl-isoxazol-4-yl]pyrazolo[1,5-a]pyridin-2-yl]cyclopropanecarboxamide] is 0.012 µM; for `CO[C@@H]1CNC[C@@H]1Oc1cnn(C)c1-c1ccn2nc(NC(=O)C3CC3)cc2c1` (single isomer, unassigned) [Example 40, N-(5-(4-(((3*S,4*R)-4-methoxypyrrolidin-3-yl)oxy)-1-methyl-1H-pyrazol-5-yl)pyrazolo[1,5-a]pyridin-2-yl)cyclopropanecarboxamide] it is 0.444 µM. `CN1CCO[C@@H](COc2cnn(C)c2-c2ccn3nc(NC(=O)C4CC4)cc3c2)C1` [Example 333, N-[5-[2-methyl-4-[[(2R)-4-methylmorpholin-2-yl]methoxy]pyrazol-3-yl]pyrazolo[1,5-a]pyridin-2-yl]cyclopropanecarboxamide] displayed an IC50 of 0.054 µM.

Regarding `CCN1CC[C@H]1COc1cnn(C)c1-c1ccn2nc(Nc3cc(C)nc(C(F)(F)F)n3)cc2c1` [Example 168, 5-[4-[[(2S)-1-ethylazetidin-2-yl]methoxy]-2-methyl-pyrazol-3-yl]-N-[6-methyl-2-(trifluoromethyl)pyrimidin-4-yl]pyrazolo[1,5-a]pyridin-2-amine], it took 0.023 µM to reach half-maximal inhibition (IC50). For `Cc1cnc(Nc2cc3cc(-c4c(OC[C@H]5CCN5CCF)cnn4C)ccn3n2)cn1` [Example 279, 5-[4-[[(2R)-1-(2-fluoroethyl)azetidin-2-yl]methoxy]-2-methyl-pyrazol-3-yl]-N-(5-methylpyrazin-2-yl)pyrazolo[1,5-a]pyridin-2-amine] the value was 0.0018 µM; for `CN1CC[C@H](Oc2cnn(C)c2-c2ccn3nc(Nc4cnc(C(F)(F)F)cn4)cc3c2)C1` [Example 453, 5-[2-methyl-4-[(3S)-1-methylpyrrolidin-3-yl]oxy-pyrazol-3-yl]-N-[5-(trifluoromethyl)pyrazin-2-yl]pyrazolo[1,5-a]pyridin-2-amine], 0.162 µM.
